Our source for the TGI and GI50 values is PubChem BioAssay (NCI).

Common to all, as to test: growth of human tumour cells (NCI), 48 h
The subject of test [1] is SNB-19 CNS.
Test [2] has as its system MALME-3M melanoma.
Test [3] has as its system A549 NSCLC.
Test [4] deals with SK-OV-3 ovarian.
The test system of test [5] is IGROV1 ovarian.
The test system of test [6] is HT29 colon.
Test [7] relates to LOX IMVI melanoma.
The subject of test [8] is SF-295 CNS.
In test [9] the test system is CCRF-CEM leukemia.

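Briefly, cells in 96-well plates were exposed to five compound concentrations for 48 h, and endpoints were estimated by linear interpolation. GI50 = concentration required for 50% inhibition of growth. TGI denotes the concentration required for complete inhibition of growth.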

In the case of `COC(=O)[C@@]12C3=NO[C@]1(C(=O)OC)C(O[Si](C)(C)C(C)(C)C)[C@@H](OC(C)=O)[C@@H](OC(C)=O)[C@@H]2[C@@H](OCc1ccccc1)CC3` (some centres not stated), the TGI in test [1], in test [2], in test [3], in [4], in [5] and in test [6] was > 100 µM in each case. Also, the TGI in test [7], in test [8] and in [9] was > 100 µM each time.
For the compound `Cc1ccc(S(=O)(=O)NNS(C)(=O)=O)cc1`, the TGI in test [1], in test [2], in test [3], in test [5], in test [6] and in test [7] was > 100 µM in each case. Moreover, the TGI in [8] and in [9] was > 100 µM each time.
Turning to `N#CC1=C(N)OC2=C(CCOc3c2ccc2ccccc32)C1c1ccc(Br)cc1` (configuration not stated), the GI50 is 77.7 µM in test [1]; 15.3 µM in test [2]; 47.1 µM in test [3]; 28.8 µM in [4]; 36.7 µM in test [6]; 18.1 µM in test [8]. Moreover, in test [9], the GI50 was 16.8 µM. The TGI in [1] was > 100 µM; in test [2] it was 57.7 µM; in test [3], > 100 µM; in test [4], > 100 µM; in test [6], > 100 µM; in test [8], 83.8 µM. In [9], this compound had a TGI of 54.2 µM.
Regarding `CC(=O)OCC1OC(n2c(=S)n(-c3ccccc3)c(=O)c3cc(Br)ccc32)C(OC(C)=O)C1OC(C)=O` (configuration not stated), the TGI in test [1], in test [2], in [3], in [4], in test [5] and in [6] was > 100 µM throughout. Also, the TGI in test [7] and in test [8] was > 100 µM throughout.
Consider `Clc1ccc(-c2nc(NCc3ccco3)c3ccccc3n2)c(Cl)c1`, for which the GI50 was 38.4 µM in test [1]; 12.9 µM in [2]; 20.1 µM in test [3]; 18.6 µM in [4]; 22.2 µM in [5]; 8.98 µM in test [7]. Also, the figures for the GI50 in test [8] and in test [9] were 13.6 µM and 10.5 µM, respectively. For the same compound, the TGI in test [1] was > 100 µM; in [2], 32.4 µM; in test [3], 49.1 µM; in test [4] it was > 100 µM; in test [5], > 100 µM; in test [7], 26.8 µM. Moreover, the TGI in test [8] is 33.5 µM; in test [9], > 100 µM.
Take `COc1ccc2c(c1)[n+]([O-])c(-c1ccccc1Cl)c(N)[n+]2[O-]`: the TGI in test [1], in test [2], in test [3], in test [4], in [5] and in [6] was > 100 µM in each case. In addition, the TGI in test [8] is > 100 µM.
On to `CC(=O)C1C(=O)C(=O)N(CCN2C(=O)C(=O)C(C(C)=O)C2=O)C1=O` (configuration not stated), for which the TGI in test [1], in [2], in test [4], in test [5], in test [6] and in test [7] was > 100 µM each time. Besides, the TGI in [8] was > 100 µM.
With `N#Cc1ccc(C2SCc3nc4ccccc4n32)cc1` (configuration not stated), the TGI in [1], in test [2], in test [3], in [4], in test [5] and in test [8] was > 100 µM each time. For the same compound, the TGI in test [9] is > 100 µM.
Regarding `CCCCOC(=O)NC(=O)c1cn(CCCOC(=O)CCCCCCCCC(=O)OCCCn2cc(C(=O)NC(=O)OCCCC)c(=O)n(C)c2=O)c(=O)n(C)c1=O`, the TGI in test [1], in test [2], in [3], in test [5], in test [6] and in test [8] was > 100 µM in each case. Also, the TGI in [9] is > 100 µM.
Consider `CC1(C)C(=O)/C=C\C(=O)C(C)(C)C(=O)/C=C\C(=O)C(C)(C)C2=CC=C(O2)C(C)(C)C(=O)/C=C\C1=O`, for which the TGI in test [1] was found to be 30.6 µM; in test [2], 4.11 µM; in test [3], 49.7 µM; in test [4] it was 22.9 µM; in test [5], 24.9 µM; in [6], 8.45 µM. Also, the values for the TGI in [7] and in test [8] were 13 µM and 31.1 µM, respectively.
Take `CCN(CC)c1ccc(C2N3CCCCC3[C@@H]3c4[nH]c5ccccc5c4CCN23)cc1` (some centres not stated): the TGI in [1] is > 100 µM; in test [2] it was 47.4 µM; in test [3], > 100 µM; in test [4], > 100 µM; in test [5], > 100 µM; in [6], 36.3 µM. For the same compound, the TGI in test [8] was > 100 µM; in test [9], 63.9 µM.
As for `CC(=O)CC(=O)Nc1ccccc1C(F)(F)F`, the TGI in test [1], in [2], in test [3], in [4], in [5] and in test [7] was > 100 µM throughout. Moreover, the TGI in test [9] is > 100 µM.
As for `CSc1nnc(C(C#N)C#N)nn1`, the TGI in test [1], in test [2], in test [3], in test [4], in test [5] and in test [6] was > 100 µM throughout. The TGI in test [7], in test [8] and in test [9] was > 100 µM each time.
Turning to `CCCCCCCCCCCCCS(=O)(=O)NCC(N)=O`, the TGI in [1], in [2], in test [3], in [4], in [5] and in test [6] was > 100 µM in each case. Further, the TGI in test [7], in [8] and in test [9] was > 100 µM each time.
With `CCN(CC)c1c(C)nnn1C1OC(COC(C)=O)C(OC(C)=O)C(OC(C)=O)C1OC(C)=O` (configuration not stated), the TGI in test [1], in test [2], in test [3], in test [4], in [5] and in test [6] was > 100 µM in each case. For the same compound, the TGI in test [8] and in test [9] was > 100 µM throughout.
